Values of other authors in US20140287088A1, “Calcium Citrate-Malate as source of calcium to prevent bone diseases and increase bone strength in young animals and birds, especially young poultry, dogs, cats, swine, calves, and horses; and laying hens” (priority 2013, published 2014).

Experiments:
[1] = humans; CCM-fortified food vs food fortified with calcium carbonate
[2] = tested on: rats; conditions: by 12 wk

## calcium citrate-malate [CC-M]
[1]
  calcium absorption and retention: significantly greater
[2]
  more trabecular bone than rats fed calcium carbonate: 44%
